Values joined by “and” are separate entries in the source; they are usually repeats but may differ in a detail not shown here. Equal values may be shown once. Where a name gives a salt, the structure may show the parent alone.
How the values were obtained:
[1] = biological target: purified PARP protein (Homo sapiens, UniProt P09874); assay: PARP enzyme inhibition assay; format: biochemical; conditions: 20 nM purified PARP (5 nM for tight-binding inhibitors), 500 μM NAD+, 25° C.; several values in one cell = repeat determinations; read-out: Inhibition Constant Ki
Sequence of purified PARP protein (P09874 whole entry): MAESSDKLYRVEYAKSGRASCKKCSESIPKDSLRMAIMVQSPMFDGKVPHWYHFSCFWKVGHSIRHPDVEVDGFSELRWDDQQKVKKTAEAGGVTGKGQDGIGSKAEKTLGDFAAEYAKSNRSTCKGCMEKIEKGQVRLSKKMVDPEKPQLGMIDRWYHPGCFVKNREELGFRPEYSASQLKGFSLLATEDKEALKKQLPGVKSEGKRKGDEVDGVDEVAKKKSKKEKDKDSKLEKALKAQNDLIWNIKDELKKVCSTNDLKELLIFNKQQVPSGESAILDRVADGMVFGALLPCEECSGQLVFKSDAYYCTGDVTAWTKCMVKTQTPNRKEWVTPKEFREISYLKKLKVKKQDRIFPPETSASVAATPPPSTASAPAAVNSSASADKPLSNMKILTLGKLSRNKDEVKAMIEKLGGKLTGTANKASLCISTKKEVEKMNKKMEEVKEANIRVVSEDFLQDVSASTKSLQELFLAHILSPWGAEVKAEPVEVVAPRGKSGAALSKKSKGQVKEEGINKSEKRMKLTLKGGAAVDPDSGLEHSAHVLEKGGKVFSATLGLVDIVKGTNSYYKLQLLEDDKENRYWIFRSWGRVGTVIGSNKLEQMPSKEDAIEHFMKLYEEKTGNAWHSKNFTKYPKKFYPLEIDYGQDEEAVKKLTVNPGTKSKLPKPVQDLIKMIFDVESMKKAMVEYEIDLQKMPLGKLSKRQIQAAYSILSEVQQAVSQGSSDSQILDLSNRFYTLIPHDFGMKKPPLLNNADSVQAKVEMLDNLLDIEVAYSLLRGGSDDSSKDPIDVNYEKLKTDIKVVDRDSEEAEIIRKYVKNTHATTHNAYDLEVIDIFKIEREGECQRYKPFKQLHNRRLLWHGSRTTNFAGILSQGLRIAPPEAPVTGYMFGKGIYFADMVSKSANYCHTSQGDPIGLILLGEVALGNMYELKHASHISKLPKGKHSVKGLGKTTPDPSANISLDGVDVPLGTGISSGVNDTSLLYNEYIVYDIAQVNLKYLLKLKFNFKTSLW

SMILES: CCOCCNCc1ccc(-c2nc3cccc4c3n2CCNC4=O)cc1 [Example 100, 1-{4-[(2-Ethoxyethylamino)-methyl]-phenyl}-8,9-dihydro-7H-2,7,9a-triaza-benzo[cd]azulen-6-one]
- melting point: 138 to 140 °C
- Ki [1]: 2.7 nM

SMILES: CS(=O)(=O)c1nc2cccc3c2n1CCNC3=O [Example 140, 1-Methanesulfonyl-8,9-dihydro-7H-2,7,9a-triaza-benzo[cd]azulen-6-one]
- melting point: > 190 °C (dec.)
- Ki [1]: 6.8 nM

SMILES: O=C1NCCn2c(C34CC5CC(CC(C5)C3)C4)nc3cccc1c32 [Example 117, 1-Tricyclo[3.3.1.1]dec-1-yl-8,9-dihydro-7H-2,7,9a-triaza-benzo[cd]azulene-6-one]
- melting point: 304 to 306 °C
- Ki [1]: 9.5 nM

SMILES: CC(O)c1c(-c2ccc(F)cc2)n2c3c(cccc13)C(=O)NCC2 (stereo not drawn) [Example 157, 6-(4-Fluoro-phenyl)-7-(1-hydroxy-ethyl)-3,4-dihydro-2H-[1,4]diazepino[6,7,1-hi]indol-1-one]
- melting point: 220 to 222 °C
- Ki [1]: 540 nM

SMILES: N#CCCNCc1ccc(-c2nc3cccc4c3n2CCNC4=O)cc1 [Example 111, 3-[4-(6-Oxo-6,7,8,9-tetrahydro-2,7,9a-triaza-benzo[cd]azulen-1-yl)-benzylamino]-propionitrile]
- melting point: 208 to 214 °C
- Ki [1]: 5.1 nM

SMILES: O=C1NCCn2c(-c3cccc(C4OCCO4)c3)nc3cc(F)cc1c32 [Example 68, 1-(3-[1,3]Dioxolan-2-yl-phenyl)-4-fluoro-8,9-dihydro-7H-2,7,9a-triaza-benzo[cd]azulen-6-one]
- melting point: 262 to 264 °C (dec.)
- Ki [1]: 5.8 nM

SMILES: O=C1NCCn2c(-c3ccc(CNCC(F)(F)F)cc3)nc3cccc1c32 [Example 103, 1-4-[(2,2,2-Trifluoro-ethylamino)-methyl]-phenyl-8,9-dihydro-7H-2,7,9a-triaza-benzo[cd]azulen-6-one]
- melting point: 221 to 223 °C
- Ki [1]: 6.2 nM

SMILES: O=C1NCCn2c(-c3cccc(CN4CCCC4)c3)cc3cccc1c32 [Example 88, 6-(3-Pyrrolidin-1-ylmethyl-phenyl)-3,4-dihydro-2H-[1,4]diazepino[6,7,1-hi]indol-1-one]
- melting point: 158 to 160 °C
- Ki [1]: 12 nM and 13 nM

SMILES: O=C1NCCn2c(-c3ccnc(Cl)c3)nc3cccc1c32 [Example 15, 1-(2-Chloropyridin-4-yl)-8,9-dihydro-7H-2,7,9a-triaza-benzo[cd]azulen-6-one]
- melting point: 265 °C (dec.)
- Ki [1]: 12.1 nM

SMILES: O=C1NCCn2c(-c3cccc(Oc4ccc(Cl)cc4)c3)nc3cccc1c32 [Example 62, 1-[3-(4-Chlorophenoxy)-phenyl]-8,9-dihydro-7H-2,7,9a-triaza-benzo[cd]azulen-6-one]
- melting point: 211 to 212 °C
- Ki [1]: 6.1 nM

SMILES: O=C1NCCn2c(SCc3ccccc3)nc3cccc1c32 [Example 29, 1-Benzylsulfanyl-8,9-dihydro-7H-2,7,9a-triaza-benzo[cd]azulen-6-one]
- melting point: 189 to 191 °C
- Ki [1]: 24 nM

SMILES: C[S+]([O-])c1nc2cccc3c2n1CCNC3=O (stereo not drawn) [Example 139, 1-Methanesulfinyl-8,9-dihydro-7H-2,7,9a-triaza-benzo[cd]azulen-6-one]
- melting point: 241 to 242 °C (dec.)
- Ki [1]: 12 nM

SMILES: CCOC(=O)c1nc2cccc3c2n1CCNC3=O [Example 74, 6-Oxo-6,7,8,9-tetrahydro-2,7,9a-triaza-benzo[cd]azulen-1-carboxylic Acid Ethyl Ester]
- melting point: 237 to 239 °C (dec.)
- Ki [1]: 33 nM

SMILES: O=C1NCCn2c(-c3ncc[nH]3)nc3cccc1c32 [Example 80, 1-(1H-Imidazol-2-yl)-8,9-dihydro-7H-2.7,9a-triaza-benzo[cd]azulen-6-one]
- melting point: 227 to 228 °C (dec.)
- Ki [1]: 9 nM

SMILES: O=C1NCCn2c(NCc3ccccc3)nc3cccc1c32 [Example 145, 1-Benzylamino-8,9-dihydro-7H-2,7,9a-triaza-benzo[cd]azulen-6-one]
- melting point: 186 °C (dec.)
- Ki [1]: 20 nM

SMILES: O=C1NCCn2c(-c3cccc(CO)c3)nc3cccc1c32 [Example 32a, 1-(3-Hydroxymethyl-phenyl)-8,9-dihydro-7H-2,7,9a-triaza-benzo[cd]azulen-6-one]
- melting point: 275 to 278 °C
- Ki [1]: 8.8 nM

SMILES: CN(C)Cc1cccc(-c2nc3cc(F)cc4c3n2CCNC4=O)c1 [Example 70, 1-(3-Dimethylaminomethyl-phenyl)-4-fluoro-8,9-dihydro-7H-2,7,9a-triaza-benzo[cd]azulen-6-one]
- melting point: 215 to 217 °C (dec.)
- Ki [1]: 4.4 nM

SMILES: N/C(=N\O)c1c(-c2ccc(F)cc2)n2c3c(cccc13)C(=O)NCC2 [Example 155, 6-(4-Fluoro-phenyl)-N-hydroxy-1-oxo-1,2,3,4-tetrahydro-[1,4]diazepino[6,7,1-hi]indole-7-carboxmidine]
- melting point: 257 to 259 °C
- Ki [1]: 87 nM

SMILES: O=C1NCCn2c(-c3cccc(Oc4cccc(C(F)(F)F)c4)c3)nc3cccc1c32 [Example 61, 1-[3-(3-Trifluoromethyl-phenoxy)-phenyl]-8,9-dihydro-7H-2,7,9a-triaza-benzo[cd]azulen-6-one]
- melting point: 121 to 122 °C
- Ki [1]: 6.2 nM

SMILES: O=C1NCCn2c(-c3ccc(CO)cc3)nc3cc(F)cc1c32 [Example 97, 4-Fluoro-1-(hydroxymethyl-phenyl)-8,9-dihydro-7H-2,7,9a-triaza-benzo[cd]azulen-6-one]
- melting point: 273 to 275 °C
- Ki [1]: 1.6 nM

SMILES: CNCc1ccc(-c2cc3cccc4c3n2CCNC4=O)cc1 [Example 83, 6-(4-Methylaminomethyl-phenyl)-3,4-dihydro-2H-[1,4]diazepino[6,7,1-hi]indol-1-one]
- melting point: 178 to 180 °C

SMILES: CN1CCn2c(-c3cccc4ccccc34)nc3cccc(c32)C1=O [Example 27, 7-Methyl-1-naphthalen-1-yl-8,9-dihydro-7H-2,7,9a-triaza-benzo[cd]azulen-6-one]
- melting point: 126 °C (dec.)

SMILES: O=C1NCCn2c(-c3cccc(C4OCCCO4)c3)nc3cccc1c32 [Example 30, 1-(3-[1,3]-Dioxan-2-yl-phenyl)-8,9-dihydro-7H-2,7,9a-triaza-benzo[cd]azulen-6-one]
- melting point: 247 °C (dec.)

SMILES: N/N=C(\N)c1c(-c2ccc(F)cc2)n2c3c(cccc13)C(=O)NCC2 (as salt: hydrochloride) [Example 156, 7-Formyl-6-(4-fluorophenyl)-1-oxo-3,4-dihydro-[1,4]diazepino[6,7,1-hi]indole Amidrazone Hydrochloride]
- melting point: 272 to 274 °C

SMILES: O=Cc1ccc(-c2cc3cc(F)cc4c3n2CCNC4=O)cc1 [Example 169, 4-(9-Fluoro-1-oxo-1,2,3,4-tetrahydro-[1,4]diazepino[6,7,1-hi]indol-6-yl)-benzaldehyde]
- melting point: 212 to 214 °C

SMILES: O=Cc1c(-c2ccc(F)cc2)n2c3c(cccc13)C(=O)NCC2
- melting point: 268 to 270 °C

SMILES: Cc1cn2c3c(cccc13)C(=O)NCC2 [Example 49, 7-Methyl-3,4-dihydro-2H-[1,4]diazepino[6,7,1-hi]indol-1-one]
- Ki [1]: 122 nM

SMILES: C=CCN1CCN(Cc2ccc(-c3nc4cccc5c4n3CCNC5=O)cc2)CC1 [Example 178, 1-[4-(4-Allyl-piperazin-1-ylmethyl)-phenyl]-2,7,8,9-tetrahydro-2,7,9a-triaza-benzo[cd]azulen-6-one]
- Ki [1]: 12 nM
